Measurements reported in patent US11564908B2, “Beta-lactam compounds or salts thereof for use in long-acting prevention or treatment of a glucose metabolism disorder” (GLYCOLYSIS BIOMED CO., LTD., priority 2019, dated 2023).
Marks after values point to notes of the source that are not given here.

Assays:
db/db mice [1] = assay: Oral glucose tolerance test (OGTT); type: in vivo; settings: for OGTT glucose concentration versus G8 group (FIG. 6A): week 6 (medication stopped for 3 weeks), time points of 30 min and 60 min; for OGTT glucose concentration versus G8 group (FIG. 6B): week 9 (medication stopped for 6 weeks), time points of 30 min, 60 min and 120 min
Experimental: Blood was sampled from the tail vein, and FPG levels were measured and recorded as the basic blood glucose levels. […] The total area under the curve (AUC) in OGTT was plotted and calculated by the Area Under Coordinates Program (StatsToDo Server, Department of Obstetrics and Gynecology, Chinese University of Hong Kong).

db/db mice [2] = assay: Histopathological assessment (H&E stain); type: in vivo
Text: For histopathological assessment, all mice were sacrificed by 95% CO2 asphyxiation at the end of the study period. Their brain, liver, kidney, pancreas, and epididymal fat pads were removed, fixed in 10% phosphate-buffered formalin, and embedded in paraffin. Tissues embedded in paraffin were cut into 4-μm-thick sections that were then stained with hematoxylin-eosin (i.e., H&E stain).

db/db mice [3] = assay: Plasma biochemical parameters (AST, ALT, BUN, Cr, HbA1c); settings: daily 3 weeks then stopped, DMH 0.41, MER 0.205, CEFT 0.82, PEN 1.473, TIE 0.41 mg/g bw i.p., MET 0.3 mg/g bw oral, week 9
Experimental: Inflammatory markers such as serum aspartate aminotransferase (AST), alanine aminotransferase (ALT), blood urea nitrogen (BUN), creatinine (Cr), and hemoglobin A1c (HbA1c) were measured using a BMC-Hitachi 717 chemistry auto analyzer.

db/db mice [4] = assay: Food and water intake of mice; type: in vivo; settings: daily 3 weeks then stopped, DMH 0.41, MER 0.205, CEFT 0.82, PEN 1.473, TIE 0.41 mg/g bw i.p., MET 0.3 mg/g bw oral, average
Experimental: Four to five weeks old db/db mice (BKS.Cg-Dock7^m+/+Lepr^db/JNarl) and m/m mice (BKS.Cg-Dock7^m+/Dock7^m+) were obtained from National Laboratory Animal Center ([…], Taiwan). […] PMI Nutrition International, Brentwood, Mo.) and water ad libitum. […] The mouse body weight (bw) and the amounts of water and food intake were recorded weekly for the entire study period.

[5] = 0.41 mg/g bw/day i.p. for 3 weeks (Example 1)

SMILES	OGTT glucose concentration versus G8 group (FIG. 6A) (db/db mice [1])	OGTT glucose concentration versus G8 group (FIG. 6B) (db/db mice [1])	Kidney histological changes (tubular degeneration and necrosis, mineralization deposition, hyaline cast) (db/db mice [2]; Example 2, end of study)	BUN (db/db mice [3])	further results
C[C@@H](O)[C@H]1C(=O)N2C(C(=O)O)=C(S[C@@H]3CN[C@H](C(=O)Nc4cccc(C(=O)O)c4)C3)[C@H](C)[C@H]12 [DMH, ertapenem]	significantly lower than that in the G8 group	significantly lower than that in the G8 group	more apparent in metformin-treated mice than in ertapenem-treated mice	44 ± 2^d mg/dL	OGTT glucose concentration versus DB group (FIG. 1) (db/db mice [1]; 0.41 mg/g bw/day i.p., week 3, time points of 90 min and 120 min): significantly lower than that in the DB group; Effect on oral glucose tolerance after treatment stopped (db/db mice [1]; treatment had been stopped for 10 weeks (Example 2)): effectively increased the oral glucose tolerance; Injuries in brain, liver, kidney, pancreas and epididymal fat pads (db/db mice [2]; [5]): no significant injuries; Severity and incidence of liver glycogen storage versus DB group (db/db mice [2]; [5]): slighter than that in the DB group; Injuries in liver, kidney, pancreas and epididymal fat pads (db/db mice [2]; Example 2, end of study): No significant injuries
C[C@@H](O)[C@H]1C(=O)N2C(C(=O)O)=C(S[C@@H]3CN[C@H](C(=O)N(C)C)C3)[C@H](C)[C@H]12 [MER, meropenem hydrate]				43 ± 2^bd mg/dL	ALT (db/db mice [3]): 89 ± 5^bcd U/L
CN(C)C(=N)N=C(N)N [Met, metformin]			more apparent in metformin-treated mice than in ertapenem-treated mice		
CC1(C)S[C@@H]2[C@H](NC(=O)Cc3ccccc3)C(=O)N2[C@H]1C(=O)O [PEN, penicillin G]	significantly lower than that in the G8 group	significantly lower than that in the G8 group			Diet intake (db/db mice [4]): 4.0 ± 0.9^a g/mice/day
